The values below come from patent US20240270737A1, “SMALL MOLECULAR INHIBITORS OF STING SIGNALING COMPOSITIONS AND METHODS OF USE” (STINGINN INC., priority 2021, published 2024).

The test system of the test is IFNβ expression (type I IFNβ promoter driving luciferase). Description: IFNβ promoter luciferase assay in hTERT-pIFNβ-Glu cells transfected with ISD. Type of test: cell-based, human. The settings on record: Homo sapiens. On the procedure:
Inhibition of IFNβ expression was measured by Luciferase induction at 24 hours after transfection of ISD, DMSO is shown (230), ISD treatment only (220) was used as a control, according to an embodiment of the invention;
Inhibition of IFNβ expression was measured by Luciferase induction at 24 hours after transfection of ISD, Mock is shown (210), ISD treatment only (220) was used as a control, according to an embodiment of the invention;
Identification of small molecule inhibitors of STING. In the presence of cytosolic DNA species, STING becomes activated to drive the transcription of cytokines such as type I IFN. Compounds binding to STING via TSA were subsequently examined for their ability to prevent cytosolic DNA species from activating the type I interferon (IFN) promoter, using a live cell assay. This assay comprised immortalized human fibroblasts (hTERT) that were stably transfected with the type I IFN promoter driving luciferase as well as the CMV promoter driving SEAP (hTERT-pIFNβ-Glu). The live cell assay has previously been disclosed in PCT/US2019/025380 entitled IFN-Beta Reporter System for Immortalized Primary Cells inventor Glen N. Barber, which was filed Apr. 2, 2018 and published as WO2019195285, and which is herein incorporated by reference in its entirety and for all purposes. The ability of the small molecules to prevent activation of the type I IFN promoter and the transcription of luciferase, but not SEAP in response to cytosolic DNA species was assessed. The activation of STING, typically by CDNs, in turn activates the transcription factors NF-κB and IRF3, both of which are required to induce the transcriptional stimulation of the Type I IFN promoter, but not the CMV promoter as IRF3 and NF-kB transcription factor binding sites are not contained in the CMV promoter. The assay identified the small molecule Compound W1 in the first screen (HTS), where the level of luciferase was not able to activate the type I IFN promoter or induce the expression of luciferase (see Table I and Table II).
Inhibition of IFNβ expression was measured by Luciferase induction at 24 hours after transfection of ISD. ISD only treatment was used as control.
Inhibition of IFNβ expression was measured by Luciferase induction at 24 hours after transfection of ISD, Mock is shown (210), ISD treatment only (220) was used as a control.
Luciferase assay: hTERT-BJ1 Telomerase Fibroblasts stably expressing the luciferase gene under the control of the interferon-beta promoter and SEAP gene under control of the CMV promoter) (hTERT-pIFNβ-Glu) were generated by the Barber laboratory. Luciferase assay was performed using Secrete-Pair Dual Luminescence Assay Kit from GeneCopoeia following the manufacturer's protocol.

`COc1ccc(-c2nc(CN3CCN(c4cc(C)nc(C(C)C)n4)CC3)cs2)cc1OC` [Compound W2]: the inhibition (in general, the relative decrease from the control value, in per cent) at 5 µM is -4%.
Consider `Cc1cc(N2CCN(Cc3csc(-c4ccccc4)n3)CC2)nc(N(C)C)n1` [Compound W6, N,N,4-trimethyl-6-{4-[(2-phenyl-1,3-thiazol-4-yl)methyl]piperazin-1-yl}pyrimidin-2-amine], for which the inhibition at 5 µM is -34%.
Turning to `COc1ccc(-c2nc(CN3CCN(c4cc(C)nc(N(C)C)n4)CC3)cs2)cc1` [Compound W7, 4-(4-{[2-(4-methoxyphenyl)-1,3-thiazol-4-yl]methyl}piperazin-1-yl)-N,N,6-trimethylpyrimidin-2-amine], the inhibition at 5 µM was -11%.
Take `COc1cccc(-c2nc(CN3CCN(c4cc(C)nc(N(C)C)n4)CC3)cs2)c1` [Compound W8, 4-(4-{[2-(3-methoxyphenyl)-1,3-thiazol-4-yl]methyl}piperazin-1-yl)-N,N,6-trimethylpyrimidin-2-amine]: the inhibition at 5 µM was -59%.
Take `Cc1cc(N2CCN(Cc3csc(-c4ccc5c(c4)OCO5)n3)CC2)nc(N(C)C)n1` [Compound W9, 4-(4-{[2-(2H-1,3-benzodioxol-5-yl)-1,3-thiazol-4-yl]methyl}piperazin-1-yl)-N,N,6-trimethylpyrimidin-2-amine]: the inhibition at 5 µM is -40%.
Turning to `Cc1cc(N2CCN(Cc3csc(-c4ccc(C#N)cc4)n3)CC2)nc(N(C)C)n1` [Compound W10, 4-[4-({4-[2-(dimethylamino)-6-methylpyrimidin-4-yl]piperazin-1-yl}methyl)-1,3-thiazol-2-yl]benzonitrile], the inhibition at 5 µM is -62%.
The figure for `Cc1cc(N2CCN(Cc3csc(-c4ccc(S(C)(=O)=O)cc4)n3)CC2)nc(N(C)C)n1` [Compound W12, 4-(4-{[2-(4-methanesulfonylphenyl)-1,3-thiazol-4-yl]methyl}piperazin-1-yl)-N,N,6-trimethylpyrimidin-2-amine] is -40%; for `Cc1cc(N2CCN(Cc3noc(-c4ccccc4)n3)CC2)nc(N(C)C)n1` [Compound W16, N,N,4-trimethyl-6-{4-[(5-phenyl-1,2,4-oxadiazol-3-yl)methyl]piperazin-1-yl}pyrimidin-2-amine] it is 26%.
`Cc1cc(N2CCN(Cc3cnc(-c4ccccc4)o3)CC2)nc(N(C)C)n1` [Compound W17, N,N,4-trimethyl-6-{4-[(2-phenyl-1,3-oxazol-5-yl)methyl]piperazin-1-yl}pyrimidin-2-amine]: the inhibition at 5 µM is 2%.
Take `Cc1cc(N2CCN(Cc3coc(-c4ccccc4)n3)CC2)nc(N(C)C)n1` [Compound W18, N,N,4-trimethyl-6-{4-[(2-phenyl-1,3-oxazol-4-yl)methyl]piperazin-1-yl}pyrimidin-2-amine]: the inhibition at 5 µM is -82%.
For `CCN(C)c1nc(C)cc(N2CCN(Cc3csc(-c4ccc(OC)c(OC)c4)n3)CC2)n1` [Compound W21, 4-(4-{[2-(3,4-dimethoxyphenyl)-1,3-thiazol-4-yl]methyl}piperazin-1-yl)-N-ethyl-N,6-dimethylpyrimidin-2-amine], the inhibition at 5 µM was -84%.
Take `CCN(CC)c1nc(C)cc(N2CCN(Cc3csc(-c4ccc(OC)c(OC)c4)n3)CC2)n1` [Compound W22, 4-(4-{[2-(3,4-dimethoxyphenyl)-1,3-thiazol-4-yl]methyl}piperazin-1-yl)-N,N-diethyl-6-methylpyrimidin-2-amine]: the inhibition at 5 µM came to 28%.
For the compound `CNc1nc(C)cc(N2CCN(Cc3csc(-c4ccc(OC)c(OC)c4)n3)CC2)n1` [Compound W23, 4-(4-{[2-(3,4-dimethoxyphenyl)-1,3-thiazol-4-yl]methyl}piperazin-1-yl)-N,6-dimethylpyrimidin-2-amine], the inhibition at 5 µM was -33%.
The figure for `COc1ccc(-c2nc(CN3CCN(c4cc(C)nc(N5CCCC5)n4)CC3)cs2)cc1OC` [Compound W24, 4-(4-{[2-(3,4-dimethoxyphenyl)-1,3-thiazol-4-yl]methyl}piperazin-1-yl)-6-methyl-2-(pyrrolidin-1-yl)pyrimidine] is -26%; for `CCc1cc(N2CCN(Cc3csc(-c4ccc(OC)c(OC)c4)n3)CC2)nc(N(C)C)n1` [Compound W25, 4-(4-{[2-(3,4-dimethoxyphenyl)-1,3-thiazol-4-yl]methyl}piperazin-1-yl)-6-ethyl-N,N-dimethylpyrimidin-2-amine] it is -126%.
As for `COc1ccc(-c2nc(CN3CCN(c4cc(C(C)C)nc(N(C)C)n4)CC3)cs2)cc1OC` [Compound W26, 4-(4-{[2-(3,4-dimethoxyphenyl)-1,3-thiazol-4-yl]methyl}piperazin-1-yl)-N,N-dimethyl-6-(propan-2-yl)pyrimidin-2-amine], the inhibition at 5 µM is -120%.
In the case of `COc1cc(N2CCN(Cc3csc(-c4ccc(OC)c(OC)c4)n3)CC2)nc(N(C)C)n1` [Compound W27, 4-(4-{[2-(3,4-dimethoxyphenyl)-1,3-thiazol-4-yl]methyl}piperazin-1-yl)-6-methoxy-N,N-dimethylpyrimidin-2-amine], the inhibition at 5 µM was -64%.
Regarding `COc1ccc(-c2nc(CN3CCN(c4cc(C(F)(F)F)nc(N(C)C)n4)CC3)cs2)cc1OC` [Compound W28, 4-(4-{[2-(3,4-dimethoxyphenyl)-1,3-thiazol-4-yl]methyl}piperazin-1-yl)-N,N-dimethyl-6-(trifluoromethyl)pyrimidin-2-amine], the inhibition at 5 µM is -89%.
With `Cc1cc(N2CCN(Cc3csc(-c4ccc(C(C)C)cc4)n3)CC2)nc(N(C)C)n1` [Compound W29, N.N.4-trimethyl-6-[4-({2-[4-(propan-2-yl)phenyl]-1.3-thiazol-4-yl}methyl)piperazin-1-yl]pyrimidin-2-amine], the inhibition at 5 µM worked out at 50%.
For `Cc1cc(N2CCN(Cc3csc(-c4ccc(C5CC5)cc4)n3)CC2)nc(N(C)C)n1` [Compound W30, 4-(4-{[2-(4-cyclopropylphenyl)-1.3-thiazol-4-yl]methyl}piperazin-1-yl)-N.N.6-trimethylpyrimidin-2-amine], the inhibition at 5 µM is 50%.
For `COc1cc(C(F)(F)F)ccc1-c1nc(CN2CCN(c3cc(C)nc(N(C)C)n3)CC2)cs1` [Compound W31, 4-[4-({2-[2-methoxy-4-(trifluoromethyl)phenyl]-1.3-thiazol-4-yl}methyl)piperazin-1-yl]-N.N.6-trimethylpyrimidin-2-amine], the inhibition at 5 µM amounted to 60%.
Take `Cc1cc(N2CCN(Cc3csc(-c4ccc(C(C)(F)F)cc4)n3)CC2)nc(N(C)C)n1` [Compound W32, 4-[4-({2-[4-(1.1-difluoroethyl)phenyl]-1.3-thiazol-4-yl}methyl)piperazin-1-yl]-N.N.6-trimethylpyrimidin-2-amine]: the inhibition at 5 µM is 70%.
Regarding `Cc1cc(N2CCN(Cc3csc(-c4ccc(CC(F)(F)F)cc4)n3)CC2)nc(N(C)C)n1` [Compound W33, N.N.4-trimethyl-6-[4-({2-[4-(2.2.2-trifluoroethyl)phenyl]-1.3-thiazol-4-yl}methyl)piperazin-1-yl]pyrimidin-2-amine], the inhibition at 5 µM worked out at 65%.
For the compound `Cc1cc(N2CCN(Cc3csc(-c4ccc(C(F)(F)Cl)cc4)n3)CC2)nc(N(C)C)n1` [Compound W34, 4-[4-({2-[4-(chlorodifluoromethyl)phenyl]-1.3-thiazol-4-yl}methyl)piperazin-1-yl]-N.N.6-trimethylpyrimidin-2-amine], the inhibition at 5 µM was 50%.
As to `Cc1cc(N2CCN(Cc3csc(-c4ccc5c(c4)OCC5)n3)CC2)nc(N(C)C)n1` [Compound W35], the inhibition at 5 µM is 0%.
